“Also recorded” adds a separate entry of the source.
How the values were obtained:
[1] = tested on: LNCaP cells; experiment: Cell-cycle analysis (propidium iodide, FACScan); type: cell-based, human; details: 5 μM, 6 days; for Sub-G1 (%): apoptotic cells, control 9.02; for G2/M (%): control 2.20; for S (%): control 15.01; for G0/G1 (%): control 82.78
Protocol: LNCaP cells were treated with 1 or 5 μM of ATRA or each of the RAMBAs for 6 days. The cells were trypsinised and washed twice in PBS (Life Technologies, Grand Island, NY, USA). The cells were fixed by adding 70% ethanol and stored at −20°C until staining. The cells were washed twice in PBS. A volume of 1 ml of a propidium iodide (PI) solution (50 μg ml^−1 in PBS) and 500 μl of an RNase stock solution (100 μg ml^−1) were added to the cells and incubated for 1 h in the dark. Approximately 10^4 stained cells were then analysed by flow cytometry (Becton Dickenson FACScan, Franklin Lakes, NJ, USA). The percentages of cells in G0/G1, S, and G2/M phases of the cell cycle as well as percentage of apoptotic cells (sub G0/G1) were determined using MODFIT LT software (Verity Software House, San Jose, CA, USA). The percentages of cells in G0/G1, S, and G2/M phases of the cell cycle were obtained from diploid cells in the sample and the percentage of apoptotic cells (sub G0/G1) was obtained from total cells minus the debris.

[2] = tested on: LNCaP cells; experiment: TUNEL assay of apoptosis in LNCaP cells; type: cell-based, human; details: 6 days; for induction of apoptosis (TUNEL): 1 or 5 μM; for percentage of apoptotic cells (TUNEL): 5 μM
Protocol: A total of 4000 LNCaP cells were plated on each well of an eight-well Lab-Tek II® chamber slide (Nalge Nunc International, Naperville, IL, USA). The LNCaP cells were then treated with either 1 or 5 μM of ATRA or RAMBA for 6 days. Cells were then fixed in 4% paraformaldehyde solution in dH2O. The cells were then processed and stained with FITC (fluorescein isothiocyanate) according to kit instructions (In situ cell death detection kit, AP, Roche Diagnostics Corp., Indianapolis, IN, USA). The FITC-stained cells are then mounted with VectorShield® mounting medium for fluorescence with DAPI (4′,6-diamidine-2′-phenylindole dihydrochloride) nuclear stain (Vector Laboratories, Inc., Burlingame, CA, USA) and covered with ApopTag® plastic coverslips (Intergen Company, Purchase, NY, USA). The slides were then examined under fluorescence microscopy (Eclipse E400, Nikon, Inc., Melville, NY, USA) and counted using SPOT Advance® 3.5 software (Diagnostic Instruments, Inc., Sterling Heights, MI, USA).

[3] = Tolerability and body weight in the LNCaP xenograft study; type: in vivo; details: 0.033 mmol kg−1 once daily
Protocol: All animal studies were performed according to the guidelines and approval of the Animal Care Committee of the University of Maryland School of Medicine, and were consistent with United Kingdom Coordinating Committee on Cancer Research guidelines for the welfare of animals in experimental neoplasia. The procedure was modified from [Grigoryev et al (1999)]. Briefly, LNCaP cells were trypsinised, counted, and suspended in Matrigel (2 × 10^7 cells ml^−1) (Fisher Scientific International, Inc., Hampton, NH, USA). Male SCID mice of 4–6 weeks of age were obtained from the National Cancer Institute (Frederick, MD, USA). Each mouse was inoculated s.c. with 0.1 ml of the cell suspension at two sites in the flank. The size of the tumours was determined by measuring the tumour volumes using calipers. Tumour volumes were calculated using the formula V=4/3 × π × r1^2 × r2(r1<r2). The tumours were allowed to develop to approximately 100 mm^3 before treatment. […] Tumour volumes were measured twice weekly and weights of animals were taken weekly after the initiation of treatment. The mice were subjected to 6 weeks of treatment. The mice were then killed and the tumours were excised, weighed, and stored at −80°C until analysis. Additionally, the plasma was collected with 50 IU of heparin and stored at −80°C until analysis.

[4] = tested on: cytokeratin 8/18; experiment: Differentiation assay (Western-blot analysis of cytokeratins 8/18); type: cell-based, human; details: LNCaP cells, 6 days; for cytokeratin 8/18 expression, fold over control: 1 μM agent alone; for cytokeratin 8/18 expression, fold over control / cytokeratin 8/18 expression, fold over control, combination with ATRA: control 1±0.07; for expression of cytokeratin 8/18 (concentration dependence): various concentrations; for cytokeratin 8/18 expression, fold over control, combination with ATRA: 1 μM RAMBA and 1 μM ATRA
Protocol: LNCaP cells were scraped with 1.5 ml of PBS. The cells were collected by centrifugation, resuspended in ice-cold cell lysis buffer (0.1 M Tris-HCl, 0.5% Triton X-100, and protease inhibitor cocktail (Boehringer, Indianapolis, IN, USA)), and sonicated. The homogenates were incubated on ice for 30 min, subjected to centrifugation at 13 000 × g for 30 min, and the supernatants were separated and stored at −80°C until use. Protein concentrations were determined by the Bradford method using a Bio-Rad kit (Hercules, CA, USA). A measure of 50 μg of cell lysate was subjected to 10% sodium dodecyl sulfate-polyacrylamide gel electrophoresis (SDS–PAGE) using the Mini-PROTEAN3 electrophoresis module assembly (Bio-Rad, Hercules, CA, USA) at 60 V at room temperature. The separated lysates on 10% SDS–PAGE gel were transferred onto Hybond ECL nitrocellulose membrane (Amersham, Arlington Heights, IL, USA) overnight at 20 V at 4°C. Western-blot analysis was performed on the nitrocellulose membrane. The membrane was blocked for 1 h in 10% nonfat dried milk and PBS containing 0.5% Tween 20 (PBS-T) at room temperature. Following washing in PBS-T, the membrane was incubated with mouse monoclonal IgG antibody to cytokeratin 8/18 or β-actin (Santa Cruz Biotechnology, Santa Cruz, CA, USA and Oncogene Research Products, Boston, MA, USA, respectively) dissolved in 10% nonfat dried milk (1 : 5000 or 1 : 10 000), respectively) for l h at room temperature. Following washing, the membrane was incubated with horseradish peroxidase-linked anti-mouse IgG antibody (Amersham, Arlington Heights, IL, USA and Oncogene Research Products, Boston, MA, USA, respectively) dissolved in 10% nonfat dried milk (1 : 1000) for 1 h at room temperature. The membrane was incubated in 4 ml ECL Western Blotting Analysis System (Amersham, Arlington Heights, IL, USA) for 1 min at room temperature. The membrane was resolved on chemiluminescence film (Amersham Hyperfilm High Performance chemiluminescence film, Arlington Heights, IL, USA) and the film was developed using an X-ray developer (M35A X-OMAT Processor, Eastman Kodak Company, Rochester, NY, USA). The intensity of the bands on film was analysed using ImageQuant 5.0 software (Amersham, Arlington Heights, IL, USA). The band intensity corresponds to the level of protein expression of cytokeratin 8/18, which is shown to be expressed in differentiated cells of epithelial origin ([Peehl et al, 1993]; [Hsieh et al, 1995]).

SMILES	Sub-G1 (%) [1] [%]	G2/M (%) [1] [%]	S (%) [1] [%]	G0/G1 (%) [1] [%]	induction of apoptosis (TUNEL) [2]	reduction of body weights compared to control ([3]; data not shown) [%]	cytokeratin 8/18 expression, fold over control [4] [fold]	cytokeratin 8/18 expression compared to control ([4]; 5 and 10 μM, P<0.05, data not shown)	expression of cytokeratin 8/18 (concentration dependence) ([4]; data not shown)	percentage of apoptotic cells (TUNEL) [2] [%]	cytokeratin 8/18 expression, fold over control, combination with ATRA [4] [fold]	toxicity to the mice [3]
CC1=C(/C=C/C(C)=C/C=C/C(C)=C/C(=O)O)C(C)(C)CCC1 [ATRA, all-trans-retinoic acid, reference compound]	13.64	12.42	9.84	77.74	concentration-dependent induction of apoptosis	~25	1.38	significant increase	concentration-dependent increase	–	–	–
CC1=C(/C=C/C(C)=C/C=C/C(C)=C/C(=O)O)C(C)(C)CCC1n1ccnc1 (centres unmarked) [VN/14-1]	17.88	10.15	7.26	82.59	concentration-dependent induction of apoptosis	–	1.18	–	concentration-dependent increase	17.03	1.59	–
CC1=C(/C=C/C(C)=C/C=C/C(C)=C/C(=O)Nc2ccc(O)cc2)C(C)(C)CCC1n1ccnc1 (centres unmarked) [VN/66-1]	14.49	5.07	11.14	83.80	concentration-dependent induction of apoptosis	–	1.28	–	concentration-dependent increase	–	1.48	–
CC1=C(/C=C/C(C)=C/C=C/C(C)=C\C(=O)Nc2ccc(O)cc2)C(C)(C)CCC1n1ccnc1 (centres unmarked) [VN/69-1]	13.39	6.20	11.14	82.66	concentration-dependent induction of apoptosis	–	1.19	–	concentration-dependent increase	–	1.32	–
CC1=C(/C=C/C(C)=C/C=C/C(C)=C/C(=O)n2ccnc2)C(C)(C)CCC1n1ccnc1 (centres unmarked) [VN/50-1]	17.67	7.30	11.38	81.33	concentration-dependent induction of apoptosis	–	1.23	–	concentration-dependent increase	17.03	1.51	very toxic; also recorded: toxic

— publication PMC2361176, “Inhibitory effects of retinoic acid metabolism blocking agents (RAMBAs) on the growth of human prostate cancer cells and LNCaP prostate tumour xenografts in SCID mice” (British Journal of Cancer, 2006)
